Measurements: BindingDB's records for doi:10.1021/acs.jmedchem.8b00990 (China Pharmaceutical University, 2019)

Experiments:
[1] = Inhibition of mouse PDL1 in mouse splenocytes assessed as rescue of splenocyte effector function
[2] = Inhibition of mouse PDL2 in mouse splenocytes assessed as rescue of splenocyte effector function

EC50 [1]: 30 nM | EC50 [2]: 40 nM
Compound: C[C@@H](O)[C@H](NC(=O)N[C@@H](CC(N)=O)C(=O)NNC(=O)[C@@H](N)CO)C(=O)O
